Read-outs that look alike come from different tables or passages of the source.
How the values were obtained:
[1] = test system: pseudomonas aeruginosa walter; experiment: In vivo activity against experimental infection in mice; parameters: species or system mouse (NMRI); conditions: sc, 168 h, subcutaneous, 7 days observation, read-out: ED50 (dose at which 50% of the animals survived)
Experimental: (§1) A number of compounds of this invention were tested in vivo in mice against experimental infections. Bacteria E. coli ATCC 11775 and pseudomonas aeruginosa walter were used as pathogens. An intraperitoneal infection with 0.2 ml of a 5% mucin suspension of the bacteria was induced. This corresponds to about 2×10^6 germs E. coli and 8×10^5 germs pseudomonas/mouse. Female NMRI mice were divided into groups of 10 animals each, two control groups remained untreated, the remaining groups were treated with different doses of the respective penicillins for the determination of the ED50 (dose at which 50% of the animals survived). The groups with the E. coli infection were treated with the substance 3 times on the first day (1, 4 and 7 hours post-infectionem) and for 2 days thereafter twice a day. The groups with the pseudomonas infection were treated with the substance applied 6 times on the first day (1, 3, 6, 9, 12, and 15 hours post-infectionem) and for 2 days thereafter twice a day. The observation time was in both cases 7 days.

E. coli ATCC 11775 [2] = experiment: as above; parameters: species or system mouse (NMRI); conditions: Escherichia coli, 168 h, 7 days observation, read-out: ED50 (dose at which 50% of the animals survived)
Experimental: as §1

[3] = test system: proteus mirabilis hamburgensis; experiment: MIC, serial dilution test in the microtiter system; assay type: cell-based; conditions: 18 h, prot. mirabilis, 37° C., 18-20 hours
Experimental: (§2) The tests were performed according to the method of the serial dilution test in the microtiter system. The effect of the substances on bacteriostasis was examined in a fluid medium. The activity on bacteriostatis was examined at the following concentrations:
(§3) 10 gm of peptone, 8 gm of meat extract-oxoid, 3 gm of sodium chloride, 2 gm of sec. sodium phosphate were diluted with distilled water to 1000 ml (pH 7.2-7.4). Only in the test against streptococci 1% of glucose was added. The age of the primary cultures was about 20 hours. The standardizations of the pathogen suspension was effected by using a photometer according to "Eppendorf" (test tube diameter 14 mm, filter 546 nm) with the aid of the turbidity of a comparison suspension consisting of barium sulfate, this suspension being prepared by addition of 3.0 ml of 1% barium chloride solution to 97 ml of 1% sulfuric acid. After the standardization, streptococcus aronson were further diluted to a concentration of 1:15 and the other germs to a concentration of 1:1500 by menas of a sodium chloride solution.
(§4) 16 mg of the test substance were put into a 10 ml measuring flask and filled up to the mark with the solvent. The further dilution series was standardized with distilled water or the respective solvent.
(§5) The cavities of the microtiter plates were filled with 0.2 ml of nutrient medium. Then, 0.01 ml of the corresponding test substance dilution was added and inoculated with 0.01 ml of the standardized suspension. The bacteria were incubated at 37° C. for 18-20 hours. Control tests merely using the solvent were carried out simultaneously.
(§6) The measurement was carried out macroscopically to determine the minimal inhibitory (threshold) concentration, i.e. the lowest still bacteriostatically effective concentration.
(§7) Staphylococcus aureus SG 511, streptococcus aronson, streptococcus faecalis ATCC 10541, escherichia coli ATCC 9637, 11 775 and escherichia coli 12593/74 (β-lactamase carrier), pseudomonas aeruginosa hamburgensis and ATCC 10145, serratia marcescens ATCC 13 880, klebsiella pneumoniae ATCC 10 031 and 272 and proteus mirabilis hamburgensis.

[4] = test system: Staphylococcus aureus SG 511; experiment: MIC, serial dilution test in the microtiter system; assay type: cell-based; conditions: SG511, 18 h, Staph. Aureus SG 511, 37° C., 18-20 hours
Experimental: as §2, §3, §4, §5, §6, §7

[5] = test system: escherichia coli ATCC 9637; experiment: MIC, serial dilution test in the microtiter system; assay type: cell-based; conditions: ATCC9637, 18 h, E. coli ATCC 9637, 37° C., 18-20 hours
Experimental: as §2, §3, §4, §5, §6, §7

[6] = test system: serratia marcescens ATCC 13 880; experiment: MIC, serial dilution test in the microtiter system; assay type: cell-based; conditions: ATCC13, 18 h, serrat marcesc., 37° C., 18-20 hours
Experimental: as §2, §3, §4, §5, §6, §7

[7] = test system: klebsiella pneumoniae 272; experiment: MIC, serial dilution test in the microtiter system; assay type: cell-based; conditions: 18 h, klebs pneum. 272, 37° C., 18-20 hours
Experimental: as §2, §3, §4, §5, §6, §7

[8] = test system: escherichia coli 12593/74 (β-lactamase carrier); experiment: MIC, serial dilution test in the microtiter system; assay type: cell-based; conditions: 18 h, E. coli 12593/74 (β-lactamase carrier), 37° C., 18-20 hours
Experimental: as §2, §3, §4, §5, §6, §7

[9] = test system: escherichia coli ATCC 11775; experiment: MIC, serial dilution test in the microtiter system; assay type: cell-based; conditions: ATCC11775, 18 h, E. coli ATCC 11775, 37° C., 18-20 hours
Experimental: as §2, §3, §4, §5, §6, §7

streptococcus aronson = experiment: MIC, serial dilution test in the microtiter system; assay type: cell-based; conditions: 18 h, strept. aronson, 1% glucose added, 37° C., 18-20 hours
Experimental: as §2, §3, §4, §5, §6, §7

[10] = test system: streptococcus faecalis ATCC 10541; experiment: MIC, serial dilution test in the microtiter system; assay type: cell-based; conditions: Enterococcus faecalis, ATCC10541, 18 h; strept. faecal.; 37° C., 18-20 hours
Experimental: as §2, §3, §4, §5, §6, §7

[11] = test system: pseudomonas aeruginosa hamburgensis; experiment: MIC, serial dilution test in the microtiter system; assay type: cell-based; conditions: 18 h, pseud. aerug. hamb., 37° C., 18-20 hours
Experimental: as §2, §3, §4, §5, §6, §7

[12] = test system: pseudomonas aeruginosa ATCC 10145; experiment: MIC, serial dilution test in the microtiter system; assay type: cell-based; conditions: ATCC10145, 18 h, pseud. aerug. ATCC 10145, 37° C., 18-20 hours
Experimental: as §2, §3, §4, §5, §6, §7

[13] = test system: klebsiella pneumoniae ATCC 10 031; experiment: MIC, serial dilution test in the microtiter system; assay type: cell-based; conditions: 18 h, klebs pneum ATCC 10031, 37° C., 18-20 hours
Experimental: as §2, §3, §4, §5, §6, §7

[14] = Serum (blood) level in rats; assay type: in vivo; conditions: rat, average from 3 rats; for concentration at 0.5 h: 30 min.; for concentration at 1 h: 60 min.; for concentration at 2 h: 120 min.
Experimental: For the determination of the serum level in rats, typical representatives of the penicillins according to the invention were administered at a dosage of 10 mg/kg subcutaneously or 100 mg/kg per os to groups of 3 female FW 49 rats (weight 100 to 130 gm) each. Blood tests taken from the heart were worked up, and the obtained sera were tested by the cylinder test-agar diffusion method on plates with sarcina lutea ATCC 15957. The samples were compared with standard curves.

pseud. aerug. hamburg. = experiment: Influence of the size of the inoculum on the MIC-values; assay type: cell-based; conditions: Pseudomonas aeruginosa
Experimental: (§8) For the penicillins C and H, which are typical representatives for this invention, the influence of the size of the inoculum on the MIC-values against ps. aerug. hamburg. and E. coli ATCC 11775 in the microtiter system was determined. Thereby 3 different sizes of inoculum (3.3×10^6, 3.3×10^4 and 3.3×10^2 in E. coli and 4.7×10^6, 4.7×10^4 and 4.7×10^2 in pseudomonas) were used. The reference system was again penicillin Q.

E. coli ATCC 11775 [15] = experiment: as above; assay type: cell-based; conditions: Escherichia coli
Experimental: as §8

| SMILES | ED50 [1] | ED50 (E. coli ATCC 11775 [2]; ATCC11775, po, peroral) | ED50 (E. coli ATCC 11775 [2]; ATCC11775, sc, subcutaneous) | MIC [3] | MIC [4] | MIC [5] | MIC [6] | MIC [7] | MIC [8] | MIC [9] | MIC (streptococcus aronson) | MIC [10] | MIC [11] | MIC [12] | MIC [13] | concentration at 0.5 h ([14]; oral 100 mg/kg) | concentration at 1 h ([14]; oral 100 mg/kg) | concentration at 2 h ([14]; oral 100 mg/kg) | concentration at 1 h ([14]; sc, subcutaneous 10 mg/kg) | concentration at 2 h ([14]; sc, subcutaneous 10 mg/kg) | also measured |
| --- | --- | --- | --- | --- | --- | --- | --- | --- | --- | --- | --- | --- | --- | --- | --- | --- | --- | --- | --- | --- | --- |
| CC1(C)S[C@@H]2[C@H](NC(=O)[C@H](NC(=O)Nc3cncnc3O)c3ccc(O)cc3)C(=O)N2[C@H]1C(=O)O [Compound A, D-α-[3-(4-hydroxy-5-pyrimidyl)-ureido]-p-hydroxybenzylpenicillin sodium] | 50 mg/kg | 50 mg/kg | 6 mg/kg | 0.6 µg/mL | 0.3 µg/mL | 2.5 µg/mL | 5 µg/mL | 80 µg/mL | > 80 µg/mL | 2.5 µg/mL | 0.08 µg/mL | 10 µg/mL | 5 µg/mL | 2.5 µg/mL | 80 µg/mL | 9100 ng/mL | 9600 ng/mL | 2900 ng/mL | 8600 ng/mL | 400 ng/mL | concentration at 0.5 h ([14]; sc, subcutaneous 10 mg/kg): 9300 ng/mL |
| CC1(C)S[C@@H]2[C@H](NC(=O)[C@H](NC(=O)Nc3cnc(C4CC4)nc3O)c3ccc(O)cc3)C(=O)N2[C@H]1C(=O)O [C, D-α-[3-(2-cyclopropyl-4-hydroxy-5-pyrimidyl)-ureido]-p-hdroxybenzyl-penicillin sodium] | 7 mg/kg | 30 mg/kg | 1.5 mg/kg | 1.25 µg/mL | 0.3 µg/mL | 2.5 µg/mL | 1.25 µg/mL | 80 µg/mL | 80 µg/mL | 1.25 µg/mL | 0.08 µg/mL | 10 µg/mL | 2.5 µg/mL | 1.25 µg/mL | 40 µg/mL | 3300 ng/mL | 4800 ng/mL | 1000 ng/mL | 6800 ng/mL | 400 ng/mL | MIC (pseud. aerug. hamburg.; inoculum 4.7 × 10^2 germs/ml): 2.5 µg/mL; MIC (pseud. aerug. hamburg.; inoculum 4.7 × 10^4 germs/ml): 5 µg/mL; MIC (pseud. aerug. hamburg.; inoculum 4.7 × 10^6 germs/ml): > 80 µg/mL; MIC (E. coli ATCC 11775 [15]; ATCC11775, inoculum 3.3 × 10^2 germs/ml): 2.5 µg/mL; MIC (E. coli ATCC 11775 [15]; ATCC11775, inoculum 3.3 × 10^4 germs/ml): 2.5 µg/mL; MIC (E. coli ATCC 11775 [15]; ATCC11775, inoculum 3.3 × 10^6 germs/ml): 2.5 µg/mL; concentration at 0.5 h ([14]; sc, subcutaneous 10 mg/kg): 5100 ng/mL |
| CC1(C)S[C@@H]2[C@H](NC(=O)[C@H](NC(=O)Nc3cnc(Cc4ccc(Cl)cc4)nc3O)c3ccc(O)cc3)C(=O)N2[C@H]1C(=O)O [D, D-α-[3-(2-p-chlorobenzyl-4-hydroxy-5-pyrimidyl)-ureido]-p-hydroxybenzyl-penicillin sodium] |  |  | 9 mg/kg | 1.25 µg/mL | 0.08 µg/mL | 2.5 µg/mL | 1.25 µg/mL | 10 µg/mL | 80 µg/mL | 1.25 µg/mL | 0.02 µg/mL | 10 µg/mL | 5 µg/mL | 2.5 µg/mL | 5 µg/mL |  | 4100 ng/mL | 1000 ng/mL | 7100 ng/mL | 300 ng/mL |  |
| Cc1ncc(NC(=O)N[C@@H](C(=O)N[C@@H]2C(=O)N3[C@@H]2SC(C)(C)[C@@H]3C(=O)O)c2ccc(O)cc2)c(O)n1 [B, D-α-[3-(4-hydroxy-2-methyl-5-pyrimidyl)-ureido]-p-hydroxybenzyl-penicillin sodium] |  |  | 5 mg/kg | 0.6 µg/mL | 1.25 µg/mL | 2.5 µg/mL | 5 µg/mL | 80 µg/mL | 80 µg/mL | 1.25 µg/mL | 0.3 µg/mL | 10 µg/mL | 5 µg/mL | 2.5 µg/mL | 80 µg/mL |  | 18800 ng/mL | 1900 ng/mL | 7300 ng/mL | 1100 ng/mL |  |

— US4241056A, “Penicillins and salts thereof” (Boehringer Ingelheim GmbH, priority 1978, dated 1980)
